pIC50: −log10 of the molar value.
Key:
NAMPT = NAMPT (Homo sapiens, UniProt P43490); experiment: TR-FRET Binding Assay of NAMPT with PRPP; conditions: with 200 μM PRPP and 2.5 mM ATP; 2 nM NAMPT, 2 nM probe, 16 hours equilibration
Outline: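 Human NAMPT (2 nM) with 2 nM probe and 1 nM Tb-anti-His antibody, plus 200 μM PRPP and 2.5 mM ATP, 2% DMSO. TR-FRET read after 16 h equilibration, permitting possible enzymatic modification of test compounds; data processing as for the substrate-free format.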

[1] = biological target: NAMPT (human, recombinant, C-terminally His-tagged) (Homo sapiens, UniProt P43490); experiment: Time-Resolved Fluorescence Resonance Energy Transfer (TR-FRET) Binding Assay of NAMPT; conditions: without substrates; 6.8 nM NAMPT, 200 nM probe, 3 hours equilibration
Chain of NAMPT (human, recombinant, C-terminally His-tagged) (P43490 whole entry): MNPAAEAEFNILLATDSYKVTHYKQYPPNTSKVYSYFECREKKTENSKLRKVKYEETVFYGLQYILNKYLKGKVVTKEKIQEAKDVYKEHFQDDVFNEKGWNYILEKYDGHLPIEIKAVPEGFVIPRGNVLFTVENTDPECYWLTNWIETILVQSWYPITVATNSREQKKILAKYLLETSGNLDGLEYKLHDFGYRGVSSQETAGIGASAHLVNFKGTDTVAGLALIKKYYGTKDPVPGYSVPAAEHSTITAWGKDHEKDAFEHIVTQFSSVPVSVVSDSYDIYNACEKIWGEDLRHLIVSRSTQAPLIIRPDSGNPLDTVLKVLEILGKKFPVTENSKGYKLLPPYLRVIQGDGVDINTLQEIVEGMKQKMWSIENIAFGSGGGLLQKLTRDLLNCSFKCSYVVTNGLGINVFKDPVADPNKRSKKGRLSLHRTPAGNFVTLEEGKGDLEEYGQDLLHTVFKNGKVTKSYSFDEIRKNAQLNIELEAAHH
Outline: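 A TR-FRET probe-displacement assay used 6.8 nM His-tagged recombinant human NAMPT, 200 nM Oregon Green 488-labelled nicotinamide-competitive probe and 1 nM Tb-anti-His antibody. Buffer was HEPES pH 7.5 with NaCl, MgCl2, DTT and glycerol, plus 2% DMSO, equilibrated 3 h at room temperature. Em520/Em495 ratios, normalized to controls, gave IC50 by four-parameter logistic fit.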

PC3 cells = experiment: NAMPT Cell Proliferation Assay; type: cell-based; conditions: Homo sapiens, PC-3, 120 h, 5 days incubation, cell viability by Cell Titer Glo
Outline: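 Cell Titer Glo viability after 5-day exposure (37° C, 5% CO2); PC3, 500 cells/well, RPMI + 10% heat-inactivated FBS, overnight attachment before dosing. Dose range 10 μM to 1×10^−5 μM, 10-fold steps. IC50 = sigmoidal fit of % inhibition.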

Chain of NAMPT (P43490 whole entry): as above

SMILES: O=C(NCc1ccn2ccnc2c1)Nc1ccc(C2CCN(C(=O)c3ccccc3)CC2)cc1 [Example 229, 1-[4-(1-benzoylpiperidin-4-yl)phenyl]-3-(imidazo[1,2-a]pyridin-7-ylmethyl)urea]
- pIC50 (NAMPT): 9.40
- pIC50 [1]: 7.87
- pIC50 (PC3 cells): 8.97

SMILES: CC(C)(O)C(=O)N1CCC(c2ccc(C(=O)NCc3ccn4ccnc4c3)cc2)CC1 [Example 230, 4-[1-(2-hydroxy-2-methylpropanoyl)piperidin-4-yl]-N-(imidazo[1,2-a]pyridin-7-ylmethyl)benzamide]
- pIC50 (NAMPT): 9.77
- pIC50 [1]: 6.53
- pIC50 (PC3 cells): 8.14

SMILES: O=C(NCc1ccn2ccnc2c1)c1ccc(C2CCN(C(=O)C3CCOC3)CC2)cc1 (stereo not drawn) [Example 231, N-(imidazo[1,2-a]pyridin-7-ylmethyl)-4-[1-(tetrahydrofuran-3-ylcarbonyl)piperidin-4-yl]benzamide]
- pIC50 (NAMPT): 9.26
- pIC50 [1]: 6.09
- pIC50 (PC3 cells): 7.45

SMILES: O=C(NCc1ccn2ccnc2c1)c1ccc(C2CCN(C(=O)C3CCOCC3)CC2)cc1 [Example 232, N-(imidazo[1,2-a]pyridin-7-ylmethyl)-4-[1-(tetrahydro-2H-pyran-4-ylcarbonyl)piperidin-4-yl]benzamide]
- pIC50 (NAMPT): 9.56
- pIC50 [1]: 6.40
- pIC50 (PC3 cells): 8.03

SMILES: O=C(NCc1ccn2ccnc2c1)c1ccc(C2CCN(C(=O)C3COCCO3)CC2)cc1 (stereo not drawn) [Example 233, 4-[1-(1,4-dioxan-2-ylcarbonyl)piperidin-4-yl]-N-(imidazo[1,2-a]pyridin-7-ylmethyl)benzamide]
- pIC50 (NAMPT): 9.40
- pIC50 [1]: 6.31
- pIC50 (PC3 cells): 8.03

SMILES: O=C(NCc1ccn2ccnc2c1)c1ccc(C2CCN(C(=O)C3CCS(=O)(=O)CC3)CC2)cc1 [Example 234, 4-{1-[(1,1-dioxidotetrahydro-2H-thiopyran-4-yl)carbonyl]piperidin-4-yl}-N-(imidazo[1,2-a]pyridin-7-ylmethyl)benzamide]
- pIC50 (NAMPT): 9.13
- pIC50 [1]: 6.04
- pIC50 (PC3 cells): 6.98

SMILES: O=C(NCc1ccn2ccnc2c1)c1ccc(C2CCN(C(=O)CC3CCCO3)CC2)cc1 (stereo not drawn) [Example 235, N-(imidazo[1,2-a]pyridin-7-ylmethyl)-4-[1-(tetrahydrofuran-2-ylacetyl)piperidin-4-yl]benzamide]
- pIC50 (NAMPT): 9.43
- pIC50 [1]: 6.31
- pIC50 (PC3 cells): 7.26

SMILES: O=C(NCc1ccn2ccnc2c1)c1ccc(C2CCN(C(=O)CC3CCOCC3)CC2)cc1 [Example 236, N-(imidazo[1,2-a]pyridin-7-ylmethyl)-4-[1-(tetrahydro-2H-pyran-4-ylacetyl)piperidin-4-yl]benzamide]
- pIC50 (NAMPT): 9.61
- pIC50 [1]: 6.22
- pIC50 (PC3 cells): 7.86

SMILES: CC(C)OCC(=O)N1CCC(c2ccc(C(=O)NCc3ccn4ccnc4c3)cc2)CC1 [Example 237, N-(imidazo[1,2-a]pyridin-7-ylmethyl)-4-{1-[(propan-2-yloxy)acetyl]piperidin-4-yl}benzamide]
- pIC50 (NAMPT): 9.55
- pIC50 [1]: 6.35
- pIC50 (PC3 cells): 7.43

SMILES: CC[C@H](C)C(=O)N1CCC(c2ccc(C(=O)NCc3ccn4ccnc4c3)cc2)CC1 [Example 238, N-(imidazo[1,2-a]pyridin-7-ylmethyl)-4-{1-[(2S)-2-methylbutanoyl]piperidin-4-yl}benzamide]
- pIC50 (NAMPT): 9.73
- pIC50 [1]: 6.91
- pIC50 (PC3 cells): 8.59

SMILES: CC(C)C(=O)N1CCC(c2ccc(C(=O)NCc3ccn4ccnc4c3)cc2)CC1 [Example 239, N-(imidazo[1,2-a]pyridin-7-ylmethyl)-4-[1-(2-methylpropanoyl)piperidin-4-yl]benzamide]
- pIC50 (NAMPT): 9.11
- pIC50 [1]: 6.51
- pIC50 (PC3 cells): 7.75

SMILES: COCCC(=O)N(Cc1ccc(C#N)cc1)c1ccc(C(=O)NCc2ccc3nccn3c2)cc1 [Example 240, 4-[(4-cyanobenzyl)(3-methoxypropanoyl)amino]-N-(imidazo[1,2-a]pyridin-6-ylmethyl)benzamide]
- pIC50 (NAMPT): 8.06
- pIC50 [1]: 5.13
- pIC50 (PC3 cells): 6.19

SMILES: CC(=O)N1CC=C(c2ccc(C(=O)NCc3ccn4ccnc4c3)s2)CC1 [Example 241, 5-(1-acetyl-1,2,3,6-tetrahydropyridin-4-yl)-N-(imidazo[1,2-a]pyridin-7-ylmethyl)thiophene-2-carboxamide]
- pIC50 (NAMPT): 9.77
- pIC50 [1]: 7.17
- pIC50 (PC3 cells): 8.07

SMILES: CS(=O)(=O)N1CC=C(c2ccc(C(=O)NCc3ccn4ccnc4c3)s2)CC1 [Example 242, N-(imidazo[1,2-a]pyridin-7-ylmethyl)-5-[1-(methylsulfonyl)-1,2,3,6-tetrahydropyridin-4-yl]thiophene-2-carboxamide]
- pIC50 (NAMPT): 9.77
- pIC50 [1]: 7.24
- pIC50 (PC3 cells): 8.12

SMILES: O=C(NCc1ccn2ccnc2c1)Nc1ccc(C2CCN(C(=O)C3CCS(=O)(=O)CC3)CC2)cc1 [Example 243, 1-(4-{1-[(1,1-dioxidotetrahydro-2H-thiopyran-4-yl)carbonyl]piperidin-4-yl}phenyl)-3-(imidazo[1,2-a]pyridin-7-ylmethyl)urea]
- pIC50 (NAMPT): 9.77
- pIC50 [1]: 6.77
- pIC50 (PC3 cells): 7.55

SMILES: O=C(NCc1ccn2ccnc2c1)c1cnc(N2C(=O)CC[C@H]2CO)s1 [Example 244, 2-[(2S)-2-(hydroxymethyl)-5-oxopyrrolidin-1-yl]-N-(imidazo[1,2-a]pyridin-7-ylmethyl)-1,3-thiazole-5-carboxamide]
- pIC50 (NAMPT): 8.77
- pIC50 [1]: < 5.00
- pIC50 (PC3 cells): 5.15

SMILES: C[C@@H]1COC(=O)N1c1ncc(C(=O)NCc2ccn3ccnc3c2)s1 [Example 245, N-(imidazo[1,2-a]pyridin-7-ylmethyl)-2-[(4R)-4-methyl-2-oxo-1,3-oxazolidin-3-yl]-1,3-thiazole-5-carboxamide]
- pIC50 (NAMPT): 9.30
- pIC50 [1]: 5.54
- pIC50 (PC3 cells): 5.26

SMILES: O=C(NCc1ccn2ccnc2c1)c1ccc(C2=CCN(S(=O)(=O)C3CC3)CC2)s1 [Example 246, 5-[1-(cyclopropylsulfonyl)-1,2,3,6-tetrahydropyridin-4-yl]-N-(imidazo[1,2-a]pyridin-7-ylmethyl)thiophene-2-carboxamide]
- pIC50 (NAMPT): 9.66
- pIC50 [1]: 7.14
- pIC50 (PC3 cells): 8.61

SMILES: O=C(NCc1ccn2ccnc2c1)c1ccc(-c2cnn(CC3CCCCO3)c2)s1 (stereo not drawn) [Example 247, N-(imidazo[1,2-a]pyridin-7-ylmethyl)-5-[1-(tetrahydro-2H-pyran-2-ylmethyl)-1H-pyrazol-4-yl]thiophene-2-carboxamide]
- pIC50 (NAMPT): 9.56
- pIC50 [1]: 7.20
- pIC50 (PC3 cells): 8.87

SMILES: O=C(NCc1ccn2ccnc2c1)c1ccc(-c2cnn(CC3CCCO3)c2)s1 (stereo not drawn) [Example 248, N-(imidazo[1,2-a]pyridin-7-ylmethyl)-5-[1-(tetrahydrofuran-2-ylmethyl)-1H-pyrazol-4-yl]thiophene-2-carboxamide]
- pIC50 (NAMPT): 9.77
- pIC50 [1]: 7.18
- pIC50 (PC3 cells): 8.62

SMILES: CC(C)OCC1CN(c2ncc(C(=O)NCc3ccn4ccnc4c3)s2)C(=O)O1 (stereo not drawn) [Example 249, N-(imidazo[1,2-a]pyridin-7-ylmethyl)-2-{2-oxo-5-[(propan-2-yloxy)methyl]-1,3-oxazolidin-3-yl}-1,3-thiazole-5-carboxamide]
- pIC50 (NAMPT): 9.14
- pIC50 [1]: 6.09
- pIC50 (PC3 cells): 7.18

SMILES: CC(C)[C@@H]1COC(=O)N1c1ccc(C(=O)NCc2ccn3ccnc3c2)s1 [Example 250, N-(imidazo[1,2-a]pyridin-7-ylmethyl)-5-[(4R)-2-oxo-4-(propan-2-yl)-1,3-oxazolidin-3-yl]thiophene-2-carboxamide]
- pIC50 (NAMPT): 9.64
- pIC50 [1]: 7.69
- pIC50 (PC3 cells): 9.17

SMILES: O=C(NCc1ccn2ccnc2c1)c1cnc(N2CC(CO)OC2=O)s1 (stereo not drawn) [Example 251, 2-[5-(hydroxymethyl)-2-oxo-1,3-oxazolidin-3-yl]-N-(imidazo[1,2-a]pyridin-7-ylmethyl)-1,3-thiazole-5-carboxamide]
- pIC50 (NAMPT): 9.20
- pIC50 [1]: 5.66
- pIC50 (PC3 cells): 5.74

SMILES: O=C(NCc1ccn2ccnc2c1)c1ccc(-c2cnn(CC3CCOC3)c2)s1 (stereo not drawn) [Example 252, N-(imidazo[1,2-a]pyridin-7-ylmethyl)-5-[1-(tetrahydrofuran-3-ylmethyl)-1H-pyrazol-4-yl]thiophene-2-carboxamide]
- pIC50 (NAMPT): 9.56
- pIC50 [1]: 7.43
- pIC50 (PC3 cells): 8.72

SMILES: O=C(NCc1ccn2ccnc2c1)c1ccc(-c2cnn(CC3CCCOC3)c2)s1 (stereo not drawn) [Example 253, N-(imidazo[1,2-a]pyridin-7-ylmethyl)-5-[1-(tetrahydro-2H-pyran-3-ylmethyl)-1H-pyrazol-4-yl]thiophene-2-carboxamide]
- pIC50 (NAMPT): 9.64
- pIC50 [1]: 7.84
- pIC50 (PC3 cells): 9.15

SMILES: CC1(Cn2cc(-c3ccc(C(=O)NCc4ccn5ccnc5c4)s3)cn2)COC1 [Example 254, N-(imidazo[1,2-a]pyridin-7-ylmethyl)-5-{1-[(3-methyloxetan-3-yl)methyl]-1H-pyrazol-4-yl}thiophene-2-carboxamide]
- pIC50 (NAMPT): 9.51
- pIC50 [1]: 7.50
- pIC50 (PC3 cells): 9.03

SMILES: CC(C)OC[C@@H]1CN(c2ncc(C(=O)NCc3ccn4ccnc4c3)s2)C(=O)O1 [Example 255, N-(imidazo[1,2-a]pyridin-7-ylmethyl)-2-{(5S)-2-oxo-5-[(propan-2-yloxy)methyl]-1,3-oxazolidin-3-yl}-1,3-thiazole-5-carboxamide]
- pIC50 (NAMPT): 8.65
- pIC50 [1]: 5.09
- pIC50 (PC3 cells): 5.37

Reference: patent publication US9187472B2 (AbbVie Inc., priority 2012, dated 2015)
